In patent US4992432A, “3-phenyl-thiazepinones as calcium regulating agents” (Hoffmann-La Roche Inc., priority 1990, dated 1991):
Where a name gives a salt, the structure may show the parent alone.

Tested on: isolated rat aortic strips
Assay: Contraction of Rat Aortic Strips (inhibition of calcium-induced contracture, calcium channel blocking activity)
Format: cell-based
Conditions: for inhibition at 0.3 µM: Rattus norvegicus, 3×10^-7 M compound, 15 minutes prior to and during calcium curve, 2 mM Ca++, 45 mM potassium, as compared to the control, read-out: % Inhibition (effect on the 2mM Ca++ contracture); for reduction in responsiveness to / contracture at 2 mM Ca++ (in words): 3×10^-7 M, 15 minute exposure
Description: The calcium channel blocking activity of compounds of formula I was determined by measuring the effect of compounds of formula I on isolated rat aortic strips. Contraction of Rat Aortic Strips Aortas were excised from rats, placed in Krebs-Henseleit solution, modified so as to be calcium free, with a depolarized level of potassium (45 mM), and 0.02 mM EDTA. The aorta was then helically cut into a strip. This strip was then divided into four equal segments which were hung in isolated tissue chambers, attached to the appropriate tranducers and subjected to 500 mg basal tension. After a period of stabilization under these conditions, calcium was introduced into the bath and the tissues contracted in a concentration dependent manner. When no calcium is available in the bathing media, and the potential dependent calcium channels are opened by the high potassium level, contractility is dependent on the level of calcium introduced into the bath. By adding increments of calcium into the bath, a reproducible concentration-dependent contracture can be obtained. […] The number for untreated controls was derived by measuring contracture for two runs where calcium alone was added. […] The inhibition in contractile response at 2mMCa++was measured as a per cent inhibition as compared to the control.

Structure (SMILES)	inhibition at 0.3 µM [%]	reduction in responsiveness to / contracture at 2 mM Ca++ (in words)
COc1ccc([C@H]2SC=C(c3ccccc3)N(CCN(C)C)C(=O)[C@H]2O)cc1 (racemic) [D, cis-rac.-6,7-Dihydro-6-hydroxy-7-(4-methoxyphenyl)-4[2-(dimethylamino)ethyl]-3-phenyl-1,4-thiazepin-5(4H)-one hydrochloride]	-16.5	
COc1ccc([C@@H]2SC=C(c3ccccc3)N(CCN(C)C)C(=O)[C@H]2OC(C)=O)cc1 (racemic) [G, trans-rac.-6-(Acetyloxy)-6,7-dihydro-7-(4-methoxy-phenyl)-4-[2-(dimethylamino)ethyl]-3-phenyl-1,4-thiazepin-5(4H)-one hydrochloride]	-8.4	
COc1ccc([C@@H]2SC=C(c3ccccc3)N(CCN(C)C)C(=O)[C@H]2O)cc1 (racemic) [H, trans-rac.-6,7-Dihydro-6-hydroxy-7-(4-methoxyphenyl) -4-[2-(dimethylamino)ethyl]-3-phenyl-1,4-thiazepin-5 (4H)-one (E)-2-butenedioate]	-5.6	
COc1ccc([C@@H]2SC=C(c3ccccc3)N(CCN(C)C)C(=O)[C@@H]2OC)cc1 (relative stereo) [C, cis-rac.6,7-Dihydro-6-methoxy-7-(4-methoxyphenyl)-4[2-(dimethylamino)ethyl-3-phenyl-1,4-thiazepin-5(4H)-one hydrochloride]	-22.1	
COc1ccc([C@@H]2SC=C(c3ccccc3)N(CCN(C)C)C(=O)[C@@H]2OC(C)=O)cc1 (relative stereo) [Compound B, cis-rac.6-(Acetyloxy)-6,7-dihydro-7-(4-methoxyphenyl) -4-[2-(dimethylamino)ethyl]-3-phenyl-1,4-thiazepin-5(4H)-one hydrochloride]	-26.8	
COc1ccc([C@@H]2SC=C(c3ccccc3)N(CCN(C)C)C(=O)[C@@H]2OC(C)=O)cc1 [Compound A, (+)-cis-6-(Acetyloxy)-6,7-dihydro-7-(4-methoxyphenyl) 4-[2-(dimethylamino)ethyl]-3-phenyl-1,4-thiazepin-5-(4H)-one hydrochloride]	-63	inhibited almost two thirds of the contracture
COc1ccc([C@@H]2Sc3ccccc3N(CCN(C)C)C(=O)[C@@H]2OC(C)=O)cc1 [Diltiazem, reference compound]	-77	marked reduction in responsiveness
COc1ccc([C@@H]2SC=C(c3ccccc3)N(CCN(C)C)C(=O)[C@@H]2O)cc1 [E]	-13	
COc1ccc([C@H]2SC=C(c3ccccc3)N(CCN(C)C)C(=O)[C@H]2OC(C)=O)cc1 [F, (-)-cis-6-(Acetyloxy)-6,7-dihydro-7-(4-methoxyphenyl) -4-[2-(dimethylamino)ethyl]-3-phenyl-1,4-thiazepin-5 (4H)-one [S-(R,* R,*)]-2,3-dihydroxybutanedioic acid salt]	-9.1	
